Assays:
Experiment in all cases: relative viability (nuclei count vs DMSO), 5 days (fraction); higher = more cells survive
[1] = test system: HCC-15
How it was run: (§1)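 Relative viability is defined as nuclei in treated wells over nuclei in vehicle wells. Duplicate plates were run and medians reported. Lung cancer cell lines in 1536-well plates were dosed by pin tool one day after seeding, with one drug or with a fixed anchor-drug dose plus five library-drug doses (not always all listed) in √10 steps, and nuclei were counted after 5 days.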

[2] = test system: NCI-H596
How it was run: as §1

[3] = test system: NCI-H2009
How it was run: as §1

[4] = test system: NCI-H2023
How it was run: as §1

[5] = test system: NCI-H2405
How it was run: as §1

[6] = test system: NCI-H1975
How it was run: as §1

[7] = test system: A-427
How it was run: as §1

[8] = test system: SK-LU-1
How it was run: as §1

[9] = test system: LXF-289
How it was run: as §1

[10] = test system: HCC-366
How it was run: as §1

[11] = test system: NCI-H1437
How it was run: as §1

[12] = test system: UMC-11
How it was run: as §1

[13] = test system: NCI-H1915
How it was run: as §1

[14] = test system: NCI-H3122
How it was run: as §1

[15] = test system: NCI-H460
How it was run: as §1

[16] = test system: NCI-H650
How it was run: as §1

[17] = test system: PC-14
How it was run: as §1

[18] = test system: H3255
How it was run: as §1

[19] = test system: PC-3 [JPC-3]
How it was run: as §1

[20] = test system: NCI-H441
How it was run: as §1

[21] = test system: HARA
How it was run: as §1

[22] = test system: NCI-H1755
How it was run: as §1

[23] = test system: NCI-H1793
How it was run: as §1

O=C(O)CCCCC(CCSCc1ccccc1)SCc1ccccc1 (configuration not stated) [CPI-613] + Cc1nc(Nc2ncc(C(=O)Nc3c(C)cccc3Cl)s2)cc(N2CCN(CCO)CC2)n1 [Dasatinib] (partner 0.075 µM)
relative viability ([1]; first compound 5 µM): 0.56
relative viability ([1]; first compound 15.81 µM): 0.529
relative viability ([1]; first compound 50 µM): 0.552
relative viability ([1]; first compound 158.11 µM): 0.308
relative viability ([1]; first compound 500 µM): 0.0395
relative viability ([2]; first compound 5 µM): 0.647
relative viability ([2]; first compound 15.81 µM): 0.616
relative viability ([2]; first compound 50 µM): 0.628
relative viability ([2]; first compound 158.11 µM): 0.465
relative viability ([2]; first compound 500 µM): 0.0504
relative viability ([3]; first compound 5 µM): 0.277
relative viability ([3]; first compound 15.81 µM): 0.264
relative viability ([3]; first compound 50 µM): 0.278
relative viability ([3]; first compound 158.11 µM): 0.0869
relative viability ([3]; first compound 500 µM): 0.029
relative viability ([4]; first compound 5 µM): 0.552
relative viability ([4]; first compound 15.81 µM): 0.457
relative viability ([4]; first compound 50 µM): 0.483
relative viability ([4]; first compound 158.11 µM): 0.0687
relative viability ([4]; first compound 500 µM): 0.0087
relative viability ([5]; first compound 5 µM): 0.205
relative viability ([5]; first compound 15.81 µM): 0.176
relative viability ([5]; first compound 50 µM): 0.203
relative viability ([5]; first compound 158.11 µM): 0.201
relative viability ([5]; first compound 500 µM): 0.209
relative viability ([6]; first compound 5 µM): 0.377
relative viability ([6]; first compound 15.81 µM): 0.331
relative viability ([6]; first compound 50 µM): 0.347
relative viability ([6]; first compound 158.11 µM): 0.176
relative viability ([6]; first compound 500 µM): 0.111
relative viability ([7]; first compound 5 µM): 0.684
relative viability ([7]; first compound 15.81 µM): 0.765
relative viability ([7]; first compound 50 µM): 0.547
relative viability ([7]; first compound 158.11 µM): 0.365
relative viability ([7]; first compound 500 µM): 0.131
relative viability ([8]; first compound 5 µM): 0.176
relative viability ([8]; first compound 15.81 µM): 0.18
relative viability ([8]; first compound 50 µM): 0.187
relative viability ([8]; first compound 158.11 µM): 0.151
relative viability ([8]; first compound 500 µM): 0.0997
relative viability ([9]; first compound 5 µM): 0.208
relative viability ([9]; first compound 15.81 µM): 0.206
relative viability ([9]; first compound 50 µM): 0.235
relative viability ([9]; first compound 158.11 µM): 0.203
relative viability ([9]; first compound 500 µM): 0.0464
relative viability ([10]; first compound 5 µM): 0.604
relative viability ([10]; first compound 15.81 µM): 0.606
relative viability ([10]; first compound 50 µM): 0.798
relative viability ([10]; first compound 158.11 µM): 0.309
relative viability ([10]; first compound 500 µM): 0.0101
relative viability ([11]; first compound 5 µM): 0.388
relative viability ([11]; first compound 15.81 µM): 0.314
relative viability ([11]; first compound 50 µM): 0.381
relative viability ([11]; first compound 500 µM): 0.304
relative viability ([12]; first compound 5 µM): 0.444
relative viability ([12]; first compound 15.81 µM): 0.417
relative viability ([12]; first compound 50 µM): 0.482
relative viability ([12]; first compound 158.11 µM): 0.144
relative viability ([12]; first compound 500 µM): 0.0883
relative viability ([13]; first compound 5 µM): 0.294
relative viability ([13]; first compound 15.81 µM): 0.244
relative viability ([13]; first compound 50 µM): 0.245
relative viability ([13]; first compound 158.11 µM): 0.228
relative viability ([13]; first compound 500 µM): 0.169
relative viability ([14]; first compound 5 µM): 0.795
relative viability ([14]; first compound 15.81 µM): 0.693
relative viability ([14]; first compound 50 µM): 0.802
relative viability ([14]; first compound 158.11 µM): 0.702
relative viability ([14]; first compound 500 µM): 0.28
relative viability ([15]; first compound 5 µM): 0.54
relative viability ([15]; first compound 15.81 µM): 0.454
relative viability ([15]; first compound 50 µM): 0.572
relative viability ([15]; first compound 158.11 µM): 0.334
relative viability ([15]; first compound 500 µM): 0.317
relative viability ([16]; first compound 5 µM): 0.474
relative viability ([16]; first compound 15.81 µM): 0.366
relative viability ([16]; first compound 50 µM): 0.424
relative viability ([16]; first compound 158.11 µM): 0.345
relative viability ([16]; first compound 500 µM): 0.361
relative viability ([17]; first compound 5 µM): 0.237
relative viability ([17]; first compound 15.81 µM): 0.232
relative viability ([17]; first compound 50 µM): 0.247
relative viability ([17]; first compound 158.11 µM): 0.0644
relative viability ([17]; first compound 500 µM): 0.0134
relative viability ([18]; first compound 5 µM): 0.408
relative viability ([18]; first compound 15.81 µM): 0.307
relative viability ([18]; first compound 50 µM): 0.346
relative viability ([18]; first compound 500 µM): 0.335
relative viability ([19]; first compound 5 µM): 0.903
relative viability ([19]; first compound 15.81 µM): 0.948
relative viability ([19]; first compound 50 µM): 0.909
relative viability ([19]; first compound 158.11 µM): 0.879
relative viability ([19]; first compound 500 µM): 0.348
relative viability ([20]; first compound 5 µM): 0.581
relative viability ([20]; first compound 15.81 µM): 0.52
relative viability ([20]; first compound 50 µM): 0.484
relative viability ([20]; first compound 158.11 µM): 0.3
relative viability ([20]; first compound 500 µM): 0.044
relative viability ([21]; first compound 15.81 µM): 0.23
relative viability ([21]; first compound 50 µM): 0.309
relative viability ([21]; first compound 158.11 µM): 0.149
relative viability ([21]; first compound 500 µM): 0.0196
relative viability ([22]; first compound 5 µM): 0.406
relative viability ([22]; first compound 15.81 µM): 0.41
relative viability ([22]; first compound 50 µM): 0.446
relative viability ([22]; first compound 158.11 µM): 0.464
relative viability ([22]; first compound 500 µM): 0.225
relative viability ([23]; first compound 5 µM): 0.327
relative viability ([23]; first compound 15.81 µM): 0.317
relative viability ([23]; first compound 50 µM): 0.421
relative viability ([23]; first compound 158.11 µM): 0.165
relative viability ([23]; first compound 500 µM): 0.018
